Laboratory results reported in patent publication US9757350B2, “Small molecule inhibitors of replication protein A that also act synergistically with cisplatin” (Indiana University Research and Technology Corp., priority 2010, dated 2017).
pIC50: −log10 of the molar value. “Also recorded” adds a separate entry of the source.

How the values were obtained:
H460 cells [1] = assay: Cell cycle analysis by PI staining, H460; type: cell-based; conditions: H460, increasing doses
Experimental: Referring now to FIG. 12A and FIG. 12B. Cell Cycle Analysis of Lung Cancer Cell Lines Following Treatment with MCI13E. A549. Referring now to FIG. 12C, and FIG. 12D. H460 were treated as indicated and analyzed for the cell cycle distribution using PI staining and flow cytometry. Quantification of data following 6 hours and 12 hour treatment with 10 and 20 μM MCI13E was performed for both A549 (FIG. 12E) and H460 (FIG. 12F) Data presented represent the averages of three replicate experiments.
(§1) Cell cycle analysis was also performed on the three lung cancer cell lines using PI staining to identify the potential arrest resulting from treatment with SMIs. Briefly, cells were plated in 6-well dishes (2×10^5 cells total) and treated for 6 or 12 hours with increasing concentration of inhibitor. Adherent and non-adherent cells were collected, washed twice with PBS containing 2% bovine serum albumin (BSA), resuspended in 70% cold EtOH and incubated overnight at −20° C. Cells were again collected and stained with PI (1 μg/mL) and RNaseA (25 μg/mL) for 30 min. at 37° C. followed by 1.5 hours at 4° C. in the dark. Flow cytometry was performed as above and data were analyzed on a histogram with events plotted against the FL2-A parameter. Cell cycle distribution was analyzed using the ModFit software and data presented represents three independent trials.

A549 cells = assay: Crystal violet cell viability assay, A549; type: cell-based; conditions: 48 hours
Experimental: Referring now to FIG. 11A. Gel showing effect of MCI13E on DNA-RPA binding. […] Cytotoxicity was analyzed via crystal violet analysis as described in “methods” 48 hours following MCI13E treatment. Data represent the average and standard deviation of four replicate experiments with each replicate containing triplicate determinations and the circles represent data from H460 cells and squares A549 cells. Referring now to FIG. 11C. Graph of MCI13E induced death via apoptosis in NSCLC cell lines. Cell were treated with the indicated concentrations of MCI13E for 48 hours and analyzed for the induction of apoptosis via Annexin V/PI staining Referring now to FIG. 11D. Graph of cell survival as a function of [MCI1EC]. Percent survival was calculated for each cell line using untreated cells as a control. Data presented are the average and standard deviation from four replicate experiments. […]
Cell Viability Assays—A crystal violet cell viability assay was performed to determine cytotoxicity of SMI. […] Stained cells were resuspended in 500 μl DMSO containing 1% SDS and absorbance was measured at 590 nm in a SpectraMax M5 plate reader (Molecular Devices, Sunnyvale, Calif.) and analyzed using SoftMax Pro 5.2. Percent viability is taken as an absorbance percentage against control untreated cells. […]

H1299 cells = assay: Cell cycle analysis by PI staining, H1299; type: cell-based; conditions: 6, 12 and 24 hours of treatment
Experimental: as §1, with “Briefly, cells were plated in 6-well dishes (2×10^5 cells total) and treated for 6 or 12 hours with increasing concentration of inhibitor.” left out

EcSSB = target: T1, EcSSB (Escherichia coli, UniProt P0AGE0); assay: E. coli SSB DNA-binding EMSA; conditions: 0-200 μM, pre-incubated with protein
T1 construct: purchased Enzymatics, Beverly, Mass
Experimental: In order to study the specificity of the CheSS19, and MCI13E/F compounds, their effects on two ssDNA binding proteins which use OB-folds for recognition and binding of ssDNA, E. coli SSB (6) and the Schizosaccharomyces pombe Pot1(DBD) domain (11) were studied. The EcSSB protein is a non-sequence-specific ssDNA binding protein, whereas the SpPot1(DBD) protein is a telomere-specific, ssDNA binding protein. In these experiments, protein was pre-incubated with the SMIs, as was done for the RPA experiments, prior to addition of radiolabeled ssDNA to the reactions.
Referring now to FIG. 6B. CheSS19 titration in EcSSB DNA-binding reactions. CheSS19 (0, 25, 50, 100, and 200 μM) was pre-incubated with EcSSB and binding reactions were carried out. Referring now to FIG. 6C. Titration of MCI13E and MCI13F in EcSSB DNA-binding reactions. Concentrations of MCI13E/F used were: 0, 25, 50, 100, and 200 μM. In all panels, the ‘Free’ ssDNA is indicated with an arrow and the ‘Bound’ ssDNA is indicated by brackets. All reactions were performed in the same order and manner as the RPA binding reactions. EcSSB binding was unaffected by CheSS19 and the MCI13E and MCI13F compounds […].
EMSAs were performed similarly to those for the RPA constructs, with the following exceptions. Reactions contained 25 nM of 5′-[^32P]-labeled 3Pc3 ssDNA and 3.3 nM (assuming homotetramer formation) SSB protein (Enzymatics, Beverly, Mass.). Reactions (20 μL) were carried out in 20 mM HEPES, pH 7.5, 1 mM DTT, 0.01% NP-40, 100 mM NaCl, and resolved by 6% native polyacrylamide gel electrophoresis at 25 mA for 2 hours. Gels were dried and quantified via phosphorimager analysis and ImageQuant software (Molecular Dynamics).

H460 cells [2] = assay: Crystal violet cell viability assay, H460; type: cell-based
Experimental: Referring now to FIG. 11A. Gel showing effect of MCI13E on DNA-RPA binding. […] Cytotoxicity was analyzed via crystal violet analysis as described in “methods” 48 hours following MCI13E treatment. Data represent the average and standard deviation of four replicate experiments with each replicate containing triplicate determinations and the circles represent data from H460 cells and squares A549 cells. Referring now to FIG. 11C. Graph of MCI13E induced death via apoptosis in NSCLC cell lines. Cell were treated with the indicated concentrations of MCI13E for 48 hours and analyzed for the induction of apoptosis via Annexin V/PI staining Referring now to FIG. 11D. Graph of cell survival as a function of [MCI1EC]. Percent survival was calculated for each cell line using untreated cells as a control. Data presented are the average and standard deviation from four replicate experiments. Experiments were performed in non-small cell lung cancer (NSCLC) cell lines A549 (squares), an adenocarcinoma, and the large cell carcinoma H460 cell line (circles).
Cell Viability Assays—A crystal violet cell viability assay was performed to determine cytotoxicity of SMI. Lung cancer cell lines, A549 and H460, were plated in 24-well dishes at 5×10^4 total cells. Forty-eight hours after plating, the cells were treated for […] with variable concentrations of SMIs. The media was aspirated, cells washed with 500 μl of PBS/EDTA and stained for 10 minutes with crystal violet solution (50% Ethanol, 0.75% crystal violet). Stained cells were resuspended in 500 μl DMSO containing 1% SDS and absorbance was measured at 590 nm in a SpectraMax M5 plate reader (Molecular Devices, Sunnyvale, Calif.) and analyzed using SoftMax Pro 5.2. Percent viability is taken as an absorbance percentage against control untreated cells. Values plotted represent four separate plate replicates and each plate replicate contained three assay replicates per plate.

T1 sequence (P0AGE0 2-178): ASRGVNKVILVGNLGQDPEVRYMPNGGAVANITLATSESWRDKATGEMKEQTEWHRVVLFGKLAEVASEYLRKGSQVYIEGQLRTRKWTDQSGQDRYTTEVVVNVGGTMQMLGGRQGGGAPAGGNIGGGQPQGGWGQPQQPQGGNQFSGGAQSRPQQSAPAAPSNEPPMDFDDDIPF

Structure (SMILES)	Cell cycle distribution (H460 cells [1])	pIC50 (A549 cells)	Cell cycle distribution (H1299 cells)	Effect on EcSSB ssDNA binding (EcSSB)	pIC50 (H460 cells [2]; 48 hours, crystal violet)	pIC50 (H460 cells [2]; 48 hours after exposing the cells)
CC1(C)C2CCC1(C)C(OC(=O)CBr)C2 (racemic) [MCI13E, (+/−)-Isobornyl bromoacetate]	increase in the proportion of cells in S-phase	~5.30	increased percentage of cells accumulated in S-phase	unaffected; also recorded: no significant inhibition	~5.30	
CC1(C)C2CCC1(C)C(OC(=O)CI)C2 (racemic) [MCI13F, (+/−)-Isobornyl iodoacetate]		~5.30		unaffected; also recorded: no significant inhibition	~5.30	5.40
